System: human fibroblasts
Experiment: Direct induction from human fibroblasts into insulin-producing cells (immunostaining, morphology)
Type: cell-based
Details: from Table 1 and FIGS. 3 and 4; removal of one compound at a time

Row | SMILES | importance for conversion into cells expressing insulin
1 | O=c1cc(N2CCOCC2)oc2c(-c3ccccc3)cccc12 [LY294002] | of particular importance
2 | C=C[C@@]1(C)CC(=O)[C@]2(O)[C@@]3(C)[C@@H](O)CCC(C)(C)[C@@H]3[C@H](O)[C@H](OC(C)=O)[C@@]2(C)O1 [forskolin, Forskolin] | of particular importance
